Results reported in patent US20120195856A1, “Method of treating patients with cardiovascular illness” (priority 2011, published 2012).
Like-named read-outs stand apart in the source and are kept apart here.

Legend:
[1] = design: species or system human; settings: in vivo
Description: The use of the antiviral drug is not useful for a longer period, as the remission period begins for the patient and the drug is ineffective.

[2] = Patient M.
[3] = format: in vivo, human
Description: Example 1. Patient, came to the clinic with a diagnosis of ischemic heart disease. Exertional angina, functional class III. Postinfarction cardiosclerosis (myocardial infarction in 1981). Atherosclerosis of the coronary arteries. Circulatory deficiency stage IIA. Cerebral atherosclerosis. Chronic cerebral impairment. Symptomatic hypertension. At arrival, complained of a squeezing pain in the area of the heart with radiation to the right hand, which arise both at rest and during physical activity (up to 4-5 times per day) and were relieved by taking nitroglycerin (up to 8 times per day), as well as shortness of breath while walking, vertigo, periodic headaches, ringing in the ears, irritability, and insomnia. The patient was prescribed treatment: anti-angina drugs (Nitrosorbidum 30 mg/day, Corinfar 30 mg/day; also has hypotensive activity), and Valacyclovir 2 tablets (1.0 g) three times a day. […] The atherogenesis index fell from 4.74 to 3.38, and there was an increase in cholesterol/HDL from 1.17 mmol/l to 1.20 mmol/l. During the treatment process, a slowing in the free-radical acidization of lipids was seen; the content of serum malondialdehyde fell from 0.50 mcmol/ml to 0.31 mcmol/ml, diethynoid conjugates fell from 1.332 mcmol/ml to 0.70 mcmol/ml, triethynoid conjugates declined from 0.23 mcmol/ml to 0.14 mcmol/ml; the a-tocopherol content recovered from 2.69 mcmol/ml to 4.32 mcmol/ml; the glutathione reductase activity went from 12.4 mcmol/l h to 22.0 mcmol/l h. On the electrocardiogram, a decrease in the T index from 35.0 to 0, in the SST from 11.0 to 0, and in the NST from 10.0 to 0 were seen. […] Angina pain and shortness of breath not present; nitroglycerine tablets not used. Vertigo and headaches had decreased.
Thus in the process of treatment, in the patient who took Valacyclovir, lipidogram, peroxide acidization of lipids, electrocardiography, and tetrapolar rheography indicators normalized. Valacyclovir side effects were not observed.

[4] = Example 4: patient with ischemic heart disease, lipid and liver complexes after Zocor and then combination anti-viral therapy; format: in vivo, human; settings: after six months of Zocor 20 mg/day, goal indicator 4.0

| Compound | long-term remission of the illness or substantial positive stabilization of the patient's condition [1] | total cholesterol ([2]; after Valacyclovir 1.0 g 3×/day for 3 courses of 7 days, with standard treatment, goal value 5.0) | serum malondialdehyde content ([3]; after Valacyclovir 1.0 g three times a day + anti-angina drugs, before 0.50) | LDL in blood serum ([3]; after Valacyclovir 1.0 g three times a day + anti-angina drugs, before 1.55) | cholesterol/LDL in blood serum ([3]; after Valacyclovir 1.0 g three times a day + anti-angina drugs, before 3.99) | electrocardiogram NST ([3]; after Valacyclovir 1.0 g three times a day + anti-angina drugs, before 10.0) | electrocardiogram SST ([3]; after Valacyclovir 1.0 g three times a day + anti-angina drugs, before 11.0) | electrocardiogram T index ([3]; after Valacyclovir 1.0 g three times a day + anti-angina drugs, before 35.0) | side effects ([3]; human, in vivo) | lipidogram, peroxide acidization of lipids, electrocardiography, and tetrapolar rheography indicators ([3]; in the process of treatment, patient who took Valacyclovir) | vertigo and headaches ([3]; within seven weeks, Valacyclovir 1.0 g three times a day + anti-angina drugs) | use of nitroglycerine tablets ([3]; within seven weeks, before up to 8 times per day) | total cholesterol ([2]; after six months of simvastatin 10 mg/day, goal indicator 5.0) | total cholesterol [4] |
| --- | --- | --- | --- | --- | --- | --- | --- | --- | --- | --- | --- | --- | --- | --- |
| Nc1nc2c(ncn2COCCO)c(=O)[nH]1 [Acyclovir] | does not provide long-term remission |  |  |  |  |  |  |  |  |  |  |  |  |  |
| CC(C)[C@H](N)C(=O)OCCOCn1cnc2c(=O)[nH]c(N)nc21 [Valacyclovir] | does not provide long-term remission | 4.7 mmol/L | 0.31 mcmol/ml | 0.47 mmol/L | 3.68 mmol/L | 0 | 0 | 0 | not observed | normalized | decreased | not used |  |  |
| CCC(C)(C)C(=O)O[C@H]1C[C@@H](C)C=C2C=C[C@H](C)[C@H](CC[C@@H]3C[C@@H](O)CC(=O)O3)[C@H]21 [simvastatin] |  |  |  |  |  |  |  |  |  |  |  |  | 4.9 mmol/L | 3.9 mmol/L |
